Measurements reported in ChEMBL document CHEMBL2331467, “Fungal transformation of cedryl acetate and α-glucosidase inhibition assay, quantum mechanical calculations and molecular docking studies of its metabolites” (Eur J Med Chem, 2013).

target: Alpha-glucosidase MAL62 (Saccharomyces cerevisiae, UniProt P07265); assay: Inhibition of yeast alpha-glucosidase using para-nitrophenyl alpha-D-glucopyranoside as substrate by spectrophotometric analysis
Sequence (P07265 whole entry): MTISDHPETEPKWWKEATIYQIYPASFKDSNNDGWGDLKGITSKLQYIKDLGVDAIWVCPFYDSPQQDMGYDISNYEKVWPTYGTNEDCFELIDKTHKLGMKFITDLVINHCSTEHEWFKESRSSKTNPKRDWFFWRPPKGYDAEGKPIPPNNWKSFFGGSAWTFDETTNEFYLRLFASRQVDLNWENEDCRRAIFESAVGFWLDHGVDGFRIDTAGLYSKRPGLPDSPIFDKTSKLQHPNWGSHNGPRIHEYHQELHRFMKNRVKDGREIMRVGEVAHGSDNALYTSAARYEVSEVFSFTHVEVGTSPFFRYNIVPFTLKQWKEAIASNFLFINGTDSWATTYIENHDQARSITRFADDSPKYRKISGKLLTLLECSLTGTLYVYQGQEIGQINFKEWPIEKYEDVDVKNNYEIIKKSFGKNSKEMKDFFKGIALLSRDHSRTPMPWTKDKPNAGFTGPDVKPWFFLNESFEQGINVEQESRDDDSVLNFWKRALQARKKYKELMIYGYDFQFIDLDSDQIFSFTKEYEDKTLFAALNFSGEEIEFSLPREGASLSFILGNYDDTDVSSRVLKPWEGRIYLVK

| Compound | IC50 |
| --- | --- |
| CC(=O)O[C@]1(C)C[C@H](O)[C@@]23C[C@H]1C(C)(C)[C@@H]2C[C@H](O)[C@H]3C | Not Active |
| CC(=O)O[C@]1(C)C[C@H](O)[C@@]23C[C@H]1C(C)(C)[C@@H]2CC[C@]3(C)O | 690 µM |

More lines, in order of falling IC50, values ahead:

| IC50 | Compound |
| --- | --- |
| 426 µM | OC[C@H]1NC[C@H](O)[C@@H](O)[C@@H]1O [DUVOGLUSTAT] |
| 130 µM | C[C@@H]1CC[C@H]2C(C)(C)[C@H]3C[C@@]12CC[C@@]3(C)O [CEDROL] |
| 94 µM | CC(=O)O[C@]1(C)CC[C@@]23C[C@H]1C(C)(C)[C@@H]2CC[C@H]3C [CEDRYL ACETATE] |
